“And” between values parts separate entries of the source, which are not always exact repeats. Identical values can stand only once. Marks after values point to notes of the source that are not given here.
Key:
Male Sprague-Dawley rats [1] = assay: Respiratory effects: minute ventilation (VE) under 5% CO2 challenge, whole body plethysmography; type: in vivo, rat; conditions: for minimum VE compared with saline group: intrathecal
Procedure: The effects of each drug on minute ventilation (VE) under 5% CO2 challenge were evaluated using whole body plethysmography (Tatsumi et al., 1991). An unrestrained rat was placed in a 3-liter whole-body plethysmograph chamber. After a 15-min acclimation period, a gas mixture of 5% CO2 and 21% O2 in N2 (100% humidified) was supplied into and out of the chamber at a rate of 1000 ml/min, and the animal was allowed to breathe the gas mixture for 5 minutes. After a steady-state ventilatory condition had been reached, with the animal awake and quiet, the inlet and outlet of the chamber were closed and the pressure changes in the box (due to the warming and wetting of the gas inspired by the rat and the cooling and drying of the expired gas) were recorded using a high-gain differential pressure transducer. A calibration volume of 0.2 ml of air was regularly introduced into the chamber during the recordings. The recordings were made for 20 to 30 seconds. Tidal volumes were calculated from the pressure changes using the equation derived by Drorbaugh and Fenn (1955). Respiratory frequencies were determined from the number of respiratory cycles in the recordings and VE values were calculated (tidal volume×frequency).
Rats were randomly assigned to one of 7 groups. The number of rats in each group was 6 to 10. The animals of each group were given 3 times (lower dose) or 30 times (higher dose) the ED50 value (antinociceptive) of MOR, DALDA or [Dmt^1]DALDA, or saline by direct percutaneous intrathecal injection. VE under 5% CO2 challenge was determined prior to and every hour up to 10 hours after the administration of the drug. VE values were expressed as a percentage of the baseline VE value obtained prior to the administration of any drug. The smallest VE value obtained after the administration of a drug (minimum V E) was determined for each animal. Mean values of the minimum V E for animals of each group were compared using the one-way analysis of variance followed by the Dunnett's test. For each animal, respiratory depression was defined as a minimum VE value that is below two standard deviations of the mean (mean−2×SD) of the saline group.
A minimum VE value (see Materials and Methods) less than the mean−(2×S.D.) of the minimum VE value of the saline group was considered a “low minimum VE”.

Male Sprague-Dawley rats [2] = assay: Rat tail-flick test, antinociceptive effects after intrathecal administration; type: in vivo; conditions: for time for which tail-flick latencies were significantly greater than baseline: 3 times ED50, direct percutaneous intrathecal injection, n=8; for Response Latencies: 3 times ED50 intrathecal, at peak analgesia; for Potency Ratios: antinociceptive potency relative to intrathecal morphine (=1); for EDT50: cumulative dose-response, quantal tail-flick test, n=10; for Baseline Latencies: tail-flick latency prior to the administration of any drug, n=4
Procedure: Male Sprague-Dawley rats (300-350 g) were used.
Under light halothane anesthesia a needle connected to a Hamilton syringe was inserted percutaneously between spinal processes of the third and fourth lumbar vertebrae into the intrathecal space. A quick flick of the tail was observed when the tip of the needle entered the intrathecal space and was used as an indicator of successful puncture (Mestre et al., 1994). Drugs were delivered in a volume of 5 μl.
Intrathecal catheterization was performed at least two days prior to the experiment as previously described (Shimoyama et al., 1996). Briefly, under halothane anesthesia, a PE-10 tube was inserted through a small hole made in the atlanto-occipital membrane and threaded 8.5 cm down the intrathecal space to the lumbosacral level of the spinal cord. Drugs were delivered via the catheter in a volume of 5 μl, followed by 10 μl saline to flush the catheter.
To assess the antinociceptive effects of the opioids, the tail-flick test was used. Radiant heat was applied to the tail at 5-8 cm from the tip using a tail-flick apparatus (IITC, Woodland Hills, Calif.). The time from the onset of the heat to the withdrawal of the tail (tail-flick latency) was measured. The intensity of the radiant heat was adjusted so that baseline latencies would fall between 2.5 and 3.5 seconds. To avoid tissue damage the heat stimulus was discontinued after seven seconds. A baseline latency was obtained for each animal prior to the administration of any drug. Subsequent response latencies were determined at designated time points. Analgesic testing was performed by a blinded investigator.
Cumulative dose-response studies were performed for each drug using the tail-flick test (Shimoyama et al., 1996), (Shimoyama et al., 1997). Each drug was tested in a group of ten rats. After measuring the baseline latencies, increasing doses of each drug were administered via an intrathecal catheter until each animal in the group became an analgesic responder. An analgesic responder was defined as one whose response tail-flick latency was two or more times the value of the baseline latency. The response latency after each dosing was determined at peak analgesia, which was 15, 30 and 45 min after the administration of the MOR, DALDA and [Dmt^1]DALDA, respectively (based on preliminary studies). Any subsequent dosing was performed immediately after the determination of response latency. The percentage of analgesic responders in the group of rats for each cumulative dose was calculated, and a cumulative dose-response curve was constructed. The dose-response data were analyzed by the BLISS-21 computer program. This program maximized the log-likelihood function to fit a parallel set of gaussian normal sigmoid curves to the dose-response data and provides ED50 values, 95% confidence interval (CI) and relative potency estimates (Umans and Inturrisi, 1981).
The effect of naloxone on the antinociceptive effects of intrathecal MOR, DALDA and [Dmt^1]DALDA was examined. An equipotent dose (3 times the ED50 value determined in Study 1) of MOR, DALDA or [Dmt^1]DALDA was given via an intrathecal catheter. Tail-flick latencies were measured prior to the administration of any drug and at the time of peak analgesia for each compound (at 15, 30 and 45 minutes after administration, for MOR, DALDA and [Dmt^1]DALDA, respectively). Naloxone hydrochloride at a dose of 82.5 nmol or saline was administered via the intrathecal catheter 10 minutes prior to the second tail-flick testing. Four rats were tested for each combination of drugs. Data were analyzed using the paired t-test.
A dose 3 times the ED50 value of MOR, DALDA, or [Dmt^1]DALDA was administered intrathecally. Tail-flick latencies were measured prior to the administration of any drug (=baseline latency) and at the time of peak analgesia (=response latency). […]

Male Sprague-Dawley rats [3] = assay: Behavioral effects after intrathecal administration; type: in vivo, rat; conditions: for rigidity of the caudal part of the body: higher dose (30 times ED50)
Excerpt: However, they retained their righting reflex.

[4] = high dose (30 times antinociceptive ED50)
[5] = higher dose, 30 times ED50 (Morphine 100 nmol of 10 rats, DALDA 7 nmol of 8, [Dmt1]DALDA 34 pmol of 7)
[6] = low dose (3 times antinociceptive ED50)
[7] = lower dose, 3 times ED50 (Morphine 10 nmol, DALDA 0.7 nmol, [Dmt1]DALDA 3.4 pmol), 6 rats per group
[8] = naloxone hydrochloride 82.5 nmol intrathecal 10 min prior to measurement

Row | Compound | minimum VE (Male Sprague-Dawley rats [1]; four rats of the higher dose DALDA group) | minimum VE compared with saline group (Male Sprague-Dawley rats [1]; [4]) | Time of Occurrence of Low Minimum VE (Male Sprague-Dawley rats [1]; higher dose, 30 times ED50) | No. of Rats with Low Minimum VE (Male Sprague-Dawley rats [1]; [5]) | minimum VE compared with saline group (Male Sprague-Dawley rats [1]; [6]) | Time of Occurrence of Low Minimum VE (Male Sprague-Dawley rats [1]; lower dose, 3 times ED50) | No. of Rats with Low Minimum VE (Male Sprague-Dawley rats [1]; [7]) | time for which tail-flick latencies were significantly greater than baseline (Male Sprague-Dawley rats [2]) | Response Latencies (Male Sprague-Dawley rats [2]; [8]) | Response Latencies (Male Sprague-Dawley rats [2]; saline 10 min prior to measurement, cut-off 7 s, listed as DALDA + saline) | Potency Ratios (Male Sprague-Dawley rats [2]) | EDT50 (Male Sprague-Dawley rats [2]; intrathecal) | Baseline Latencies (Male Sprague-Dawley rats [2]) | rigidity of the caudal part of the body (Male Sprague-Dawley rats [3]) | sedative effects (Male Sprague-Dawley rats [3]; higher dose, coincided with respiratory depression) | No. of Rats with Low Minimum VE (Male Sprague-Dawley rats [1]; lower dose, 3 times ED50 (Morphine 10 nmol, DALDA 0.7 nmol, [Dmt1]DALDA 3.4 pmol), 6 rats per group, listed as MOR) | Response Latencies (Male Sprague-Dawley rats [2]; saline 10 min prior to measurement, cut-off 7 s, listed as MOR + saline) | Response Latencies (Male Sprague-Dawley rats [2]; saline 10 min prior to measurement, cut-off 7 s, listed as [Dmt^1]DALDA + saline) | potency relative to DALDA in the rat tail flick test (Male Sprague-Dawley rats [2]; after intrathecal administration) | effect of added yohimbine (100 μg) on the antinociceptive effect (Male Sprague-Dawley rats [2]; intrathecal, [Dmt1]DALDA 1.1 pmol or DALDA 240 pmol with yohimbine)
1 | NCCCC[C@H](NC(=O)[C@H](Cc1ccccc1)NC(=O)[C@@H](CCCN=C(N)N)NC(=O)[C@@H](N)Cc1ccc(O)cc1)C(N)=O [DALDA, H-Tyr-D-Arg-Phe-Lys-NH2] | less than 60 % of baseline | significantly lower minimum VE | 3-5 h after administration | 4 | significantly lower minimum VE | 3-5 h after administration | 4 | 7 h | not different from baseline values | ≥ 7 (cut-off latency)* s | 14 and 14.1 | 237 pmol | 2.63 ± 0.15 s | Rigidity of the caudal part of the body was observed in each animal | showed sedative effects | – | – | – | – | –
2 | CN1CC[C@]23c4c5ccc(O)c4O[C@H]2[C@@H](O)C=C[C@H]3[C@H]1C5 [Morphine, morphine, reference compound] | – | significantly lower | 3-5 h after administration | 4 | – | 4 h after administration | 1 | 3 h | not different from baseline values | – | – | 3330 pmol | 2.78 ± 0.50 s | Rigidity of the caudal part of the body was observed in each animal | – | one | ≥ 7 (cut-off latency)* s | – | – | –
3 | Cc1cc(O)cc(C)c1C[C@H](N)C(=O)N[C@H](CCCNC(=N)N)C(=O)N[C@@H](Cc1ccccc1)C(=O)N[C@@H](CCCCN)C(N)=O [[Dmt^1]DALDA, 2′,6′-dimethyl-Tyr-D-Arg-Phe-Lys-NH2] | – | not different | 3 h after administration | – | not different | – | – | 13 h | not different from baseline values | – | 3000 and 3160 | 1.06 pmol | 2.83 ± 0.17 s | Rigidity of the caudal part of the body was observed in each animal | – | – | – | ≥ 7 (cut-off latency)* s | 200 fold | significantly attenuated
